The subject of data set [1] is SARS-CoV-2. Nature of the data set: Antiviral activity against ancestral SARS-CoV-2 WA1/2020 infected in human A549-hACE2-TMPRSS2 cells assessed as inhibition of virus induced cytopathic effect incubated for 72 hrs by celltiter glo assay. The data set is classed as functional, organism-based. The following applies: Severe acute respiratory syndrome coronavirus 2, WA1/2020, A549-hACE2-TMPRSS2, 72 h. For orientation: Damage to the host cells serves as the signal in cytopathic effect assays.

For data set [2], the system named is SARS-CoV-2. Briefly: Antiviral activity against SARS-CoV-2 Delta B.1.617 AY-2 infected in human A549-hACE2-TMPRSS2 cells assessed as inhibition of virus induced cytopathic effect incubated for 72 hrs by celltiter glo assay. Type of data set: functional, organism-based. The following applies: Severe acute respiratory syndrome coronavirus 2, Delta B.1.617 AY-2, A549-hACE2-TMPRSS2, 72 h.

In data set [3] the target is T1, Cytochrome P450 1A2 (Homo sapiens, UniProt P05177).
T1 sequence (P05177 whole entry): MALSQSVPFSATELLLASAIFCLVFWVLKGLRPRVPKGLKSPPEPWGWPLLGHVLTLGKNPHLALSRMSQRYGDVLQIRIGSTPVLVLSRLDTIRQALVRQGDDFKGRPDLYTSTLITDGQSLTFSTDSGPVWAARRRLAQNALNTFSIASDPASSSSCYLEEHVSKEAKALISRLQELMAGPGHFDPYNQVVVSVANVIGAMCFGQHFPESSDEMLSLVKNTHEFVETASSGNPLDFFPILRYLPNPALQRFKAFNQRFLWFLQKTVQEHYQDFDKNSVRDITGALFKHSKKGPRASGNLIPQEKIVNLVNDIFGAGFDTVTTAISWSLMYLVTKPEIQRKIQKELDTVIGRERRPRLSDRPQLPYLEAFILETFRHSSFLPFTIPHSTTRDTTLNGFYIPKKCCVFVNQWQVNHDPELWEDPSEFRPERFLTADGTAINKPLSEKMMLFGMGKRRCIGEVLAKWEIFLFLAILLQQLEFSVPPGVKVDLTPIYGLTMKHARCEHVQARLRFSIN
Briefly: Induction of CYP1A2 in human hepatocytes assessed as increase in CYP1A2 mRNA level at 20 uM measured after 48 hrs by PCR analysis relative to control. Type of data set: ADME, cell-based, Hepatocyte.

The target in data set [4] is Cytochrome P450 3A4 (Homo sapiens, UniProt P08684). Briefly: Induction of CYP3A4 in human hepatocytes assessed as increase in CYP3A4 mRNA level at 20 uM measured after 48 hrs by PCR analysis relative to control. The data set is classed as ADME, cell-based, Hepatocyte.
Data set [5] in a line: Lipophilicity, logD of compound at pH 8 by HPLC analysis. The note with it: buffer. The data set is classed as physicochemical.
In data set [6] the target is T2, Cytochrome P450 2C8 (Homo sapiens, UniProt P10632).
T2 sequence (P10632 whole entry): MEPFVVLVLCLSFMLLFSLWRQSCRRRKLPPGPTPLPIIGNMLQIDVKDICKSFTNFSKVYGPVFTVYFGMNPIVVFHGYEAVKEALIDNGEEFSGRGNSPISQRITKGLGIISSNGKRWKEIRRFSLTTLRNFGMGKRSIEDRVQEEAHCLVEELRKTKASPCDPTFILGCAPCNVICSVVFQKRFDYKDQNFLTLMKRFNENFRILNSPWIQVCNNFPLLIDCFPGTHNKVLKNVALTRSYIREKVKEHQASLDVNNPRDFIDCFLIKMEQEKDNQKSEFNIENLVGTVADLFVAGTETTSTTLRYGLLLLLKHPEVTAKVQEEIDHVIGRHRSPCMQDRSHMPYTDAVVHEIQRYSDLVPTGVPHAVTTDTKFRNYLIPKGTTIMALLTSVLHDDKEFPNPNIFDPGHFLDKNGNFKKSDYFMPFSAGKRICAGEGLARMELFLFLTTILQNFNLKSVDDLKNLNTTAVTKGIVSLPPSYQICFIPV
Nature of the data set: Reversible inhibition of CYP2C8 in human liver microsomes using amodiaquine as substrate incubated for 5 mins in presence of NADPH-generating system by LC-MS/MS analysis. The data set is classed as ADME, Microsome. Background: Liver microsomes are a subcellular fraction often used to study metabolism.

Data set [7] concerns the target Cytochrome P450 2C9 (Homo sapiens, UniProt P11712). Briefly: Reversible inhibition of CYP2C9 in human liver microsomes using diclofenac as substrate incubated for 5 mins in presence of NADPH-generating system by LC-MS/MS analysis. The data set is classed as ADME, Microsome.
Data set [8] has as its target Cytochrome P450 2C19 (Homo sapiens, UniProt P33261). Briefly: Reversible inhibition of CYP2C19 in human liver microsomes using S-mephenytoin as substrate incubated for 5 mins in presence of NADPH-generating system by LC-MS/MS analysis. The data set is classed as ADME, Microsome.
Data set [9] addresses T3, Cytochrome P450 2B6 (Homo sapiens, UniProt P20813).
T3 sequence (P20813 whole entry): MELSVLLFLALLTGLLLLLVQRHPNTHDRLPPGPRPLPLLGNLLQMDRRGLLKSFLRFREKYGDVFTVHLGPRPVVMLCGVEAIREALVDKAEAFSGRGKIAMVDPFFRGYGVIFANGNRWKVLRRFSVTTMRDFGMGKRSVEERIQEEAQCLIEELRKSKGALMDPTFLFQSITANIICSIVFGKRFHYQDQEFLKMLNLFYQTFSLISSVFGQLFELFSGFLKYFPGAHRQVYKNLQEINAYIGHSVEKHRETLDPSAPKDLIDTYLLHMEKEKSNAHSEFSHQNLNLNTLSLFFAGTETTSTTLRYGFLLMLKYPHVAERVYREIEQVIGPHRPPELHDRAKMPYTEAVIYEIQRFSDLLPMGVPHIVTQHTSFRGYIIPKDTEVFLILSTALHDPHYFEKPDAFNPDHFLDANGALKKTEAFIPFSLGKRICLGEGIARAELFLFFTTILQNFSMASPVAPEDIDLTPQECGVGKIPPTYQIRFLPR
Briefly: Reversible inhibition of CYP2B6 in human liver microsomes using bupropion as substrate incubated for 5 mins in presence of NADPH-generating system by LC-MS/MS analysis. The data set is classed as ADME, Microsome.

A short description of data set [10]: Plasma stability in rat assessed as epimerization at 1 uM measured upto 3 hrs by LC-MS/MS analysis. The data set is classed as ADME, cell-free.
A short description of data set [11]: Plasma stability in rhesus monkey assessed as epimerization. Type of data set: ADME, cell-free, Macaca mulatta.
A short description of data set [12]: Plasma protein binding in rat assessed as free fraction at 1 uM. Type of data set: ADME, cell-free.
The nature of data set [13]: Plasma protein binding in monkey assessed as unbound fraction at 1 uM. The data set is classed as ADME, cell-free, Macaca mulatta. The following applies: rhesus monkey.
Data set [14] deals with SARS-CoV-2. Nature of the data set: Antiviral activity against SARS CoV-2 USA-WA1/2020 infected in B6.Cg-Tg(K18-ACE2)2Prlmn/J mouse assessed as fold reduction in viral load in lung at 500 mg/kg, po bid measured on day 4 post inoculation. The note with it: time 4 day. Type of data set: functional, Severe acute respiratory syndrome coronavirus 2.
Data set [15] deals with SARS-CoV-2. Briefly: Antiviral activity against SARS CoV-2 USA-WA1/2020 infected in B6.Cg-Tg(K18-ACE2)2Prlmn/J mouse assessed as protection against body weight loss at 100 to 500 mg/kg, po bid measured daily for 4 days post inoculation. Type of data set: functional, organism-based. The following applies: Severe acute respiratory syndrome coronavirus 2, dose 100-500 mg/kg, time 4.0 day.

pIC50: −log10 of the molar value. Calls of active or inactive are those of the source. The calls are words filed in the database; no cut-off is given here.

This is an account of results in ChEMBL document CHEMBL5528064, “Invention of MK-7845, a SARS-CoV-2 3CL Protease Inhibitor Employing a Novel Difluorinated Glutamine Mimic” (J Med Chem, 2024).

As usually defined, the pIC50 is −log10 of the IC50, conventionally taken in molar units. As a reminder, the logD is the decadic logarithm of the distribution of all forms, ionised or not, between an organic phase and buffer at a given pH. Usually fraction unbound stands for free concentration divided by total concentration.

Chain of Cytochrome P450 2C19 (P33261 whole entry): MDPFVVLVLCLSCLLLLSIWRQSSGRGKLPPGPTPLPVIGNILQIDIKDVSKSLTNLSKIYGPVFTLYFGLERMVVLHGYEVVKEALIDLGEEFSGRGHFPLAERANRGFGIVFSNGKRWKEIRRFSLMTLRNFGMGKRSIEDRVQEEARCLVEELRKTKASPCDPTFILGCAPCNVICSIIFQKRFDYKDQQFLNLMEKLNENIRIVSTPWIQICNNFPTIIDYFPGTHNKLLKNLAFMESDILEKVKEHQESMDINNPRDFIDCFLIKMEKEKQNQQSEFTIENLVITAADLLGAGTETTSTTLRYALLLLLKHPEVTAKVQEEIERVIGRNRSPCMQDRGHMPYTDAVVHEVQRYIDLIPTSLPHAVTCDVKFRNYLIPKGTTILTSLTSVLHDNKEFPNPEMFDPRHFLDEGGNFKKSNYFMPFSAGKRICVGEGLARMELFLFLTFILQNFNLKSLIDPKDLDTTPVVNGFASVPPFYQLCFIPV
Chain of Cytochrome P450 3A4 (P08684 whole entry): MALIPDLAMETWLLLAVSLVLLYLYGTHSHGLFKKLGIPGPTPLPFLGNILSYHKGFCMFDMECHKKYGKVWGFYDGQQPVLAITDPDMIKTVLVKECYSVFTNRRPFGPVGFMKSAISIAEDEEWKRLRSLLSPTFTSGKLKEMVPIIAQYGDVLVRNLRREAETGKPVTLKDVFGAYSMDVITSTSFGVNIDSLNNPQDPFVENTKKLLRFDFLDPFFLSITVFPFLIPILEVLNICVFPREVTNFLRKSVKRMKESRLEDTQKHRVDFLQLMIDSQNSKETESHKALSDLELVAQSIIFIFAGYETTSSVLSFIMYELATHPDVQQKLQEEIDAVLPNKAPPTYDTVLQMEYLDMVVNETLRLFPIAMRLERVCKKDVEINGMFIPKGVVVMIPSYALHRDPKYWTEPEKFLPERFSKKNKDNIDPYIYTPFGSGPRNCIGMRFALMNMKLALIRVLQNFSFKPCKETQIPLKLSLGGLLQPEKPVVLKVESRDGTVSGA
Chain of Cytochrome P450 2C9 (P11712 whole entry): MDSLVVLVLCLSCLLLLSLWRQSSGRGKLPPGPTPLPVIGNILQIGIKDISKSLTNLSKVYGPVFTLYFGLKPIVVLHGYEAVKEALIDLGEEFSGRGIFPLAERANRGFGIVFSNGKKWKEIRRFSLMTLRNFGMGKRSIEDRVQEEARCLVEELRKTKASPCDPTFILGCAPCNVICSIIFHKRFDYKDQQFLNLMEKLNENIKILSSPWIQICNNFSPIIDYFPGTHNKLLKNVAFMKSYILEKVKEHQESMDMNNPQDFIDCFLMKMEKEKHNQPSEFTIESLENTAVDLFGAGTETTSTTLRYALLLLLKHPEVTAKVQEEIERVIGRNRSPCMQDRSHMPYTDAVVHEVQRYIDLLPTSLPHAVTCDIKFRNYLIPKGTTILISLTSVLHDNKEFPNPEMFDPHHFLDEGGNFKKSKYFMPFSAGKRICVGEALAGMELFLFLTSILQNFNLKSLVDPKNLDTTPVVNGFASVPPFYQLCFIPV

As to `CNC(=O)C(=O)[C@H](CCC(C)(F)F)NC(=O)[C@@H]1[C@H]2CCC[C@H]2CN1C(=O)[C@@H](NC(=O)OC)C(C)(C)C`, the pIC50 in [1] was 6.35; in data set [2], 6.45; in data set [6], under 3.70; in data set [7] it was under 3.70; in data set [8], under 3.70; in [9], 3.80. Besides, the Activity was under 1% in data set [3] and 22% in [4]. This compound also gave a logD in data set [5] of 2.49. The Stability entry in [10] and in data set [11] was “Unstable” throughout. Further, the fraction unbound at 1 µM is 0.1 in data set [12] and 0.5 in data set [13]. Besides, the “fold change (FC)” value in [14] amounted to 5. Also, the result in data set [15] was Active.
